Experimental data taken from paper PMC12881674, “Activation of TRPV3 channels in bladder cancer cells stimulates ATP release” (Molecular Pharmacology, 2025).

Experiments:
human TRPA1 = molecular target: T1, human TRPA1 (Homo sapiens, UniProt O75762); assay: fluo-4 Ca2+ assay selectivity, HEK cells expressing human TRPA1; assay type: cell-based
T1 construct: expressed in transfected cells; host or cells: HEK293
Source text: (§1) KU-19-19 (DSMZ no. ACC 395), CAL-29 (DSMZ no. ACC 515), 647-V (DSMZ no. ACC 414), RT-4 (DSMZ no. ACC 412), and RT-112 (DSMZ no. ACC 418) bladder cancer cell lines were obtained from the Leibniz Institute DSMZ (German Collection of Microorganisms and Cell Cultures). Human TRPV3 (NM_145068, purchased from OriGene) and mouse TRPV3 (NM_001371006), rat TRPV1, mouse TRPV2, mouse TRPV4, human TRPM2, human TRPM8, and human TRPA1 were stably transfected in HEK293 cells as described before.[27] […]
(§2) All fluorometric Ca^2+ assays were performed in HBS buffer at room temperature. […] For the primary compound screening and the generation of concentration-response analyses, a robotic liquid handling station (Freedom Evo 150; Tecan) with a built-in custom-made fluorescence plate imager was used. […] Fluorescence was excited using a 470-nm light-emitting diode, and emitted light was imaged through a 515-nm–long pass filter with a cooled Zyla 5.5 camera (Andor). Fluorescence was recorded and processed under the control of the μ-Manager 2.0 gamma software (https://micro-manager.org.[28]). After recording baseline fluorescence, compounds were dispensed into the wells via the liquid handling device. […] For further analysis, fluorescence signals were calculated for each well, corrected for background intensities and normalized to the initial signals. […]

human TRPV3 = molecular target: T2, human TRPV3 (Homo sapiens, UniProt Q8NET8); assay: fluo-4 fluorometric Ca2+ assay, concentration-response, HEK cells expressing human TRPV3; assay type: cell-based; conditions: HEK cells expressing human TRPV3, fluo-4, room temperature, mean ± SD back-transformed from log space, n=5; read-out: EC50 for human TRPV3 activation
T2 construct: host or cells: HEK293
T2 sequence (Q8NET8 1-790): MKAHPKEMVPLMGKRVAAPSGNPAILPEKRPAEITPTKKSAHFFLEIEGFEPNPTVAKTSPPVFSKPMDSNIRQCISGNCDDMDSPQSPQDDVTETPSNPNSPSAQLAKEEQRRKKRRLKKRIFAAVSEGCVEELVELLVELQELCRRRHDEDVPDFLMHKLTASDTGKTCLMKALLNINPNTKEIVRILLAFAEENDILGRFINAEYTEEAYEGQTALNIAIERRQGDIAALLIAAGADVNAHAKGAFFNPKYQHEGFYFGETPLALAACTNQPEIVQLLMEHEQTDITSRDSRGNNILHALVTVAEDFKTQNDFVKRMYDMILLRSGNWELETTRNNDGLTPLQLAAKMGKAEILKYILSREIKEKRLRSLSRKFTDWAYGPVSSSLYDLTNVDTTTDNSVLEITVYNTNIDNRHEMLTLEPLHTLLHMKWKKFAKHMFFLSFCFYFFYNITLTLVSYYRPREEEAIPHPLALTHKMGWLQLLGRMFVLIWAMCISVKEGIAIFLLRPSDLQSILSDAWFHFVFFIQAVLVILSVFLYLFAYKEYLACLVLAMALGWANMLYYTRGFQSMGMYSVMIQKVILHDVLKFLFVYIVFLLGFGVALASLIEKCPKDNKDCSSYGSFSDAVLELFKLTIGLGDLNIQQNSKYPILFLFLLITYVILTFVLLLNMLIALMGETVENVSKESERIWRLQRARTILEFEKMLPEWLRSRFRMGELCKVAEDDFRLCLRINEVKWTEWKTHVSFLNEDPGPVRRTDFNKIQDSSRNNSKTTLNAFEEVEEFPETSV
Source text: as §1, §2

T1 sequence (O75762 whole entry): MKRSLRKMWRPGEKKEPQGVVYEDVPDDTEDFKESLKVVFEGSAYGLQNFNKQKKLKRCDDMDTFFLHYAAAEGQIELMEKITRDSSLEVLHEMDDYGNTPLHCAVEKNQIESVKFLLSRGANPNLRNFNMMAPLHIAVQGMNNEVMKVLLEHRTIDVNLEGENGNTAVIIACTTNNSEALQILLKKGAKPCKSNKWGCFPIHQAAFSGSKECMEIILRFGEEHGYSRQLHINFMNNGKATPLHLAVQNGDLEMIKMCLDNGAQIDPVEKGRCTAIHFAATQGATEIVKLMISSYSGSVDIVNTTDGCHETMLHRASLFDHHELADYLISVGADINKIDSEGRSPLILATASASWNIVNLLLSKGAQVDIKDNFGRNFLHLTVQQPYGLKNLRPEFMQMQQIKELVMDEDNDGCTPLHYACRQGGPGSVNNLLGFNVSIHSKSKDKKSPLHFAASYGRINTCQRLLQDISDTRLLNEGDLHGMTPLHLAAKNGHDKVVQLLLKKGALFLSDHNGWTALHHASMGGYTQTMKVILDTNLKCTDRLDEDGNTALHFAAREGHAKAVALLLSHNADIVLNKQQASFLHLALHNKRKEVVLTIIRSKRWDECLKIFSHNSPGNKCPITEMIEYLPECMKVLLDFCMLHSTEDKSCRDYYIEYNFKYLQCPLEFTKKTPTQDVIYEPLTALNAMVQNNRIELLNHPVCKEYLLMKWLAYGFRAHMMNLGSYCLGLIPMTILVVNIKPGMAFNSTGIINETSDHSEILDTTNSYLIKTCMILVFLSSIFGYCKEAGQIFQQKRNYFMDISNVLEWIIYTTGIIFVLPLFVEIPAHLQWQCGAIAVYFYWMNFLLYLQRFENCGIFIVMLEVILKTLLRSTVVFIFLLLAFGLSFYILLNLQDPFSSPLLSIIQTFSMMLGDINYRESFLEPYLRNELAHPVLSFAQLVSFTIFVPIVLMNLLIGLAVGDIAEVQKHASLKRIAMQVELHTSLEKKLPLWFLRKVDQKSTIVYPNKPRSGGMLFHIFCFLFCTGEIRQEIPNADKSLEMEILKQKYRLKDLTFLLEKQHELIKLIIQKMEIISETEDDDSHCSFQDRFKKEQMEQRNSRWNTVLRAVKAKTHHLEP

`COC(=O)C12CN(Cc3ccccc3)CC1(C(=O)OC)CN(Cc1ccccc1)C2` (centres unmarked) [AV3-1] was tested, and the “effect on TRPA1” value (human TRPA1) was “activates” and the EC50 (human TRPV3) was 7.2 ± 1.4 µM.
